Literature values, collected in patent US8394592B2, “Methods for assessing cancer susceptibility to carcinogens in tobacco products” (The Board of Regents of the University of Texas System, priority 2006, dated 2013).

System: Swiss mice
Conditions: micronucleus test in Swiss mice; cited from earlier work

## CN(CCCC(=O)c1cccnc1)N=O [NNK, 4-(methylnitrosamino)-1-(3-pyridyl)-1-butanone]
  mutagenicity: potent mutagen
